Source: patent publication US20040038958A1, “Topical treatment of skin diseases” (priority 2002, published 2004)
“And” between values parts separate entries of the source, which are not always exact repeats. Equal values may be shown once. “Also recorded” adds a separate entry of the source.

Legend:
[1] = tested on: interleukin 4; experiment: IL-4 in homogenized mouse ears after TDI challenge (ELISA); assay type: in vivo, BALB/c-mice
Protocol: (§1) One part of the collected ears was fixed in 4% formaldehyde for histological section and stained with haematoxylin-eosin with respect to dermal thickness and granulocyte accumulation. These parameters were measured in 10 fields at 40 times magnification. The remaining tissue was shock-frozen and stored in liquid nitrogen immediately after sampling. For the determination of biochemical parameters, the mice ears were homogenized under liquid nitrogen. The homogenates were taken in 200 μl RPMI 1640 medium and the protease inhibitor Pefabloc® (1 mmol) was added and the samples were mixed intensively. After centrifugation (10000 g, 10 min, 4° C.), the supernatant was collected and the protein content was determined. The samples were stored at −80° C. until the cytokines were determined. Interleukin (IL) 4, IL-6 and MIP-2 were measured in the samples by ELISA using commercially available kits according to manufacturers instructions.

[2] = tested on: PDE4; details: Griswold et al., 1998, Kuss et al., 2002; cited from earlier work
[3] = tested on: macrophage inflammatory protein 2; experiment: MIP-2 in homogenized mouse ears after TDI challenge (ELISA); assay type: in vivo, BALB/c-mice
Protocol: as §1

[4] = tested on: human cells from nasal polyps; details: antigen stimulated; Kuss et al., 2002; cited from earlier work
[5] = tested on: domestic pigs; details: Kuss et al., 2002; cited from earlier work
[6] = tested on: mice sensitized to TDI (long term exposure); experiment: TDI induced ear swelling after long term (120 days) repeated exposure sensitization; assay type: in vivo; details: 120 days sensitization, AWD 12-281 3% 1 h after challenge
Protocol: FIG. 4: Effect of AWD 12-281 on TDI induced ear swelling in mice sensitized to TDI using a long term (120 days) repeated exposure sensitization paradigm. Bars represent ear swelling 1, 5 and 24 h after TDI challenge.
Furthermore, an experiment was carried out to obtain information on the therapeutic effects of AWD 12-281 in a model of long term exposure to TDI. Thus 10 mice were treated with 100 μl 0.5% TDI on the abdominal skin in intervals of 10 days for 120 days. Ten days after the last abdominal TDI treatment, mice were challenged on the left ear with 20 μl 0.5% TDI, split in 10 μl onto the outer and inner surface of the ear, respectively. One hour after TDI challenge 5 mice were treated with AWD 12-281 (3%), 5 mice were sham treated. Before as well as 1, 5 and 24 h after challenge, the ear thickness was measured.

[7] = Penetration of 14C AWD 12-281 through murine back skin (Franz diffusion cell); assay type: in vitro ADME, mouse
Protocol: FIG. 1: Cutaneous permeation of ^14C AWD 12-281 measured using a “Franz” diffusion cell and murine back skin. Activity of ^14C AWD 12-281 was measured in […] during 360 min incubation. Results of two independent experiments. 15 μl (110322970 dpm) of ^14C AWD 12-281 (dissolved in acetone/DMSO 1:1) was applied to the shaved skin.
The ability of ^14C AWD 12-281 to penetrate through murine back skin was tested in a diffusion cell (Franz cell). Dry shaved murine back skin was set onto the diffusion cell so that 1.5 cm (diameter) of the dermal side were in contact with warmed (34° C.) buffer (bovine serum). 15 μl (110322970 dpm) of ^14C AWD 12-281 (dissolved in acetone/DMSO 1:1) were applied to the shaved skin. Samples were taken 15, 60, 120, 180, 240, 300, 360 min and the radioactivity was measured in a β counter (Beckman, Munich, Germany). The experiment was performed twice.

[8] = tested on: interleukin 6; experiment: IL-6 in homogenized mouse ears after TDI challenge (ELISA); assay type: in vivo, BALB/c-mice
Protocol: as §1

[9] = tested on: granulocyte influx in the dermis of mice ears; experiment: Histological examination of mouse ear skin after TDI challenge; assay type: in vivo, BALB/c-mice
Protocol: as §1

[10] = tested on: sensitized Brown Norway rats; details: late phase airway reaction to antigen; Kuss et al., 2002; cited from earlier work
[11] = tested on: human eosinophils; details: in vitro; Ezeamuzie, 2001; cited from earlier work
[12] = 24 h after TDI challenge, AWD 12-281 3%, rechallenge
[13] = 24 h after TDI challenge, topical 2 h before challenge, AWD 12-281 1%, cilomilast 3%, diflorasone 0.05%
[14] = AWD 12-281 3%, cilomilast 3%, diflorasone 0.05%, 24 h after TDI challenge

## O=C(Nc1c(Cl)cncc1Cl)C(=O)c1cn(Cc2ccc(F)cc2)c2ccc(O)cc12 [AWD 12-281, N-(3,5-Dichloro-4-pyridinyl)-2-[1-(4-fluoro-benzyl)-5-hydroxy-1 H-indol-3-yl]-2-oxoacetamide]
[1]; [12]
  concentration of interleukin 4 in mouse skin: inhibited the increase significantly
[1]; [13]
  concentration of interleukin 4 in homogenized mouse ears: reduced the increase slightly; also recorded: slight inhibitory effect
[1]; [14]
  IL-4, mean inhibition (%) of the TDI induced synthesis: 80% and 81%
[1]; AWD 12-281 3%, homogenized mouse ears 24 h after TDI challenge (rechallenge), vehicle control 67 ± 2, mean ± s.e.
  IL-4: 12 ± 3 pg/400 µg protein
[2]
  IC50 for PDE4 relative to cilomilast: about ten times lower than that of cilomilast
[3]; [12]
  concentration of MIP-2 in mouse skin: diminished the increase of the MIP-2 concentration significantly
[3]; [13]
  concentration of macrophage inflammatory protein 2 in homogenized mouse ears: reduced the increase slightly; also recorded: reduced this increase slightly
[3]; [14]
  MIP-2, mean inhibition (%) of the TDI induced synthesis: 75%
[3]; AWD 12-281 3%, homogenized mouse ears 24 h after TDI challenge (rechallenge), vehicle control 286 ± 39, mean ± s.e.
  MIP-2: 72 ± 8 pg/400 µg protein
[4]
  release of inflammatory mediators such as GM-CSF, TNF-α and histamine: inhibited the release of inflammatory mediators
[5]
  LPS induced lung neutrophilia: inhibitory effects
[6]; 1 and 5 h after challenge
  TDI induced ear swelling: no significant difference between the groups
[6]; 5 h after challenge
  TDI induced ear swelling: slight inhibition
[6]; 24 h after challenge
  TDI induced ear swelling: nearly abolished the TDI induced swelling; also recorded: inhibited the swelling significantly
[7]; 14C AWD 12-281 in acetone/DMSO 1:1 on shaved murine back skin, 360 min (6 h) after application, two independent experiments
  amount of radioactivity measured in buffer, % of the total activity (cumulative absorption): 0.22% and 0.08%
[7]; AWD 12-281 murine skin after 6 h vs hydrocortisone in human skin in Franz cells (Hueber et al., 1994)
  absorption compared to hydrocortisone: tenfold higher absorption compared to hydrocortisone
[8]; [12]
  concentration of interleukin 6 in mouse skin: inhibited this response significantly
[8]; [13]
  concentration of interleukin 6 in homogenized mouse ears: weak significantly; also recorded: inhibited this response significantly; also recorded: only a slight effect
[8]; [14]
  IL-6, mean inhibition (%) of the TDI induced synthesis: 52%
[8]; AWD 12-281 3%, homogenized mouse ears 24 h after TDI challenge (rechallenge), vehicle control 89 ± 5, mean ± s.e.
  IL-6: 42 ± 6 pg/400 µg protein
[9]; AWD 12-281 (3%) treated mouse ears, long term exposure study (not shown)
  inflammatory cells and vascular leakage, histological examination: nearly total absense of inflammatory cells and vascular leakage
[9]; mouse ear skin 24 h after TDI challenge, topical treatment
  edema and influx of inflammatory cells (mainly granulocytes): inhibited these inflammatory processes markedly
[10]
  accumulation of eosinophils in bronchoalveolar lavage: significantly reduced the accumulation of eosinophils
[11]
  degranulation of human eosinophils: inhibited the degranulation
